Assay results: patent US7108863B2, “Liposome composition for improved intracellular delivery of a therapeutic agent” (Alza Corporation, priority 2001, dated 2006)

What was measured:
CD19^+ Namalwa cells = experiment: In vitro cytotoxicity, MTT proliferation assay on Namalwa cells; type: cell-based; details: Homo sapiens, 48 hours, mean ± SD, read-out: IC50 (μM DXR)
Experimental: In vitro cytotoxicity of free DXR and various liposomal formulations was evaluated using Namalwa cells with an in vitro proliferation assay as described in Example 6. In addition to the targeted, pH-sensitive liposomes, conventional, non-pH sensitive sterically stabilized liposome (DXR-SL) and doxorubicin in free form were also tested. Each of the test formulations was incubated with the Namalwa cells under controlled conditions for 48 hours. At the end of the incubation time, cytotoxicity was expressed as the inhibitory concentration, that is the concentration required for a 50% inhibition of cell growth (IC50).
A comparison of the in vitro cytotoxicity of free doxorubicin and various liposomal formulations (Table 1) was performed on Namalwa cells with an in vitro proliferation assay using a tetrazolium dye (MTT -3-(4,5-dimethylthiazol-2-yl)-2,5 diphenyltetrazolim bromide; Mosmann, J. J. Immunol Methods, 65:55 (1983)), as described in Lopes de Menezes et al, Cancer Res., 58:3320 (1998).
Briefly, 5×10^5 Namalwa cells were plated in 96-well plates and incubated with either free DXR or various formulations of liposome-encapsulated doxorubicin with or without anti-CD19 mAb. […] At the end of the incubation period, tetrazolium dye was added, and the plates were read on a Titertek Multiskan Plus (Flow Laboratories, Inc. Mississauga, Ontario, Canada) at dual wavelengths of 570 and 650 nm. […]

[1] = test system: CD 19± human B-lymphoma (Namalwa) cells; experiment: Survival of SCID mice implanted i.v. with Namalwa cells; type: in vivo
Experimental: In another study performed in support of the invention, mice were treated with targeted, pH-sensitive liposomes having releasable PEG chains. Entrapped in the liposomes was the therapeutic agent doxorubicin (DXR). As described in Example 9, the mice were treated with a single dose of 3 mg DXR/kg in free form or entrapped in liposomes. The liposome formulations are summarized in Table 2 and detailed in Example 8.
Namalwa cells were passaged i.p. in CB-17/ICR Tac SCID mice (Charles River Laboratories, Quebec, Canada) to develop a more virulent strain with reproducible tumor take (Lopes de Menezes et al., Cancer Res., 58:3320 (1998)). Namalwa cells were harvested in sterile PBS and implanted into SCID mice. Cell viability was assessed by dye exclusion using Trypan Blue dye before and after the implantation process.
SCID mice (5 mice/group) (Charles River Laboratories), 6–8 weeks of age, were implanted with Namalwa cells i.v. (5×10^6) and treated i.v. at 24 h after implantation with a single dose of 3 mg doxorubicin/kg as either free doxorubicin, doxorubicin-SIL[anti-CD19] or targeted DXR-loaded DOPE/CHEMS formulations stabilized with either mPEG-DSPE or mPEG-S-S-DSPE. The treatment regimens were as follows:
All treatment groups received 3 mg doxorubicin/kg. Mice were monitored routinely for weight loss, and euthanized as they became moribund; survival times were recorded. […]

Namalwa cells = experiment: Nuclear accumulation of doxorubicin in Namalwa cells; type: cell-based, human; details: 8 μM DXR, 0-12 hours
Experimental: Nuclear accumulation of doxorubicin was determined as described in Example 7. Briefly, Namalwa cells, maintained under logarithmic growth conditions were treated with doxorubicin-entrapped liposome formulations at a doxorubicin concentration of 8 μM. At various time points (0, 2, 4, 8, 12 hours), an aliquot of the treated cells was ruptured to recover the nuclei. The DNA in the nuclei were enzymatically digested and doxorubicin fluorescence was measured.
Nuclear accumulation of doxorubicin was determined according to the method of Kirchmeier et al. (J. Liposome Res., 11:15 (2001)). Briefly, 4.5×10^8/500 ml Namalwa cells, maintained under logarithmic growth conditions in RPMI 1640 supplemented with 10% FBS, were treated with either free DXR or various liposomal DXR formulations at a DXR concentration of 8 μM.
At various time points (0, 2, 4, 8, 12 hours), 100 ml of cells was pelleted by centrifugation at 1000 rpm for 10 min and washed with 20 ml of TEA buffer. […] After removal of the supernatant, the pellet was diluted to 1 ml with TEA buffer, then vortexed and sonicated until the nuclei were evenly dispersed, as determined by visual inspection.
For each time point, three aliquots of the nuclear fractions (0.2 ml each) were placed in 1.3 ml TEA. […] Following digestion at 22° C. for 2 hours, the doxorubicin fluorescence was recorded (excitation at 480 nm and emission at 595 nm). […]

SMILES: COc1cccc2c1C(=O)c1c(O)c3c(c(O)c1C2=O)C[C@@](O)(C(=O)CO)C[C@@H]3O[C@H]1C[C@H](N)[C@H](O)[C@H](C)O1 [Free DXR, doxorubicin]
- IC50 (CD19^+ Namalwa cells): 0.8 ± 0.7 µM
- Increased Life Span (% ILS) ([1]; relative to mean survival time of control mice, 3 mg DXR/kg i.v.): 9.5%
- Mean Survival Time (MST ± S.D. (days)) ([1]; single i.v. dose 3 mg DXR/kg 24 h after i.v. implantation, 5 mice/group): 23.0 ± 1.4 days
- nuclear accumulation of doxorubicin (in words) (Namalwa cells): fastest rate
